Tests used:
MMP-9 [1] = test: Immunostaining of lung sections, OVA mice; format: in vivo; settings: OVA-sensitized and -challenged mice
sGCα1 = test: Western blotting of lung tissue, OVA-sensitized and -challenged mice; format: in vivo; settings: nebulization, 28-day experiment
MMP-9 [2] = test: OVA-induced MMP-9 expression in lung tissue, asthma mice; format: in vivo, BALB/c mice; settings: nebulization, 28-day experiment; western blotting and zymography
Experimental: The male BALB/c mice (20-23 g) are injected (i.p.) with OVA (5 mM, 30 mins), sensitized with OVA on day 1 and day 8 via i.p injection and activated by 2 mg aluminum hydroxide to which 2 μg OVA is absorbed. […] The asthmatic animals are divided into 5 groups, wherein the control group is only administered with saline spray and the remaining experimental groups are firstly administered with 1% OVA spray and then administered with the sprays of the related complex salts respectively as shown in Table 4. The inhibition of the expression of OVA-induced MMP-9 in lung tissue of BALB/c mice is measured.

[3] = tested on: inflammatory cells, vascular and bronchial wall; test: Histological analyses of lung, OVA-exposed mice; format: in vivo
Source text: Histological analyses show the typical pathologic features of asthma in the OVA-exposed mice. Numerous inflammatory cells including eosinophils are infiltrated around the peri-vascular and peri-bronchial region, compared to control mice. […] After OVA challenge, marked increases in PA wall thickness % are found, compared to controls P<0.01).
OVA-sensitization increases the vascular and bronchial wall thickness, however, treatment with long-term KMUP-1 nebulization prevents these changes. […] MMP-9-immunostaining in peri-bronchial region and the reduced MMP-9-positive cells in bronchiole co-indicate the reduction of migration of infiltrated inflammatory cells.

NOx = NOx levels in BALF of OVA-sensitized and -challenged mice (Griess reagent); format: in vivo; settings: 24 hrs after last OVA challenge; basal 65.4, OVA 162.8 μM
iNOS = test: Western blotting of lung tissue, OVA-sensitized and -challenged mice; format: in vivo; settings: nebulization, 28-day experiment
eNOS = test: Immunostaining of lung sections, OVA mice; format: in vivo
Source text: OVA decreases vascular eNOS-immunostaining in lung sections, but KMUP-1 prevents this decrease quantitatively.

VCAM-1 = test: Western blotting of lung tissue, OVA-sensitized and -challenged mice; format: in vivo
Source text: (§1) Inhaled KMUP-1 can be absorbed into airway and blood flow to increase eNOS and down-regulate Rho-kinase expression by a cGMP-dependent pathway, protecting OVA-sensitized and challenged ICAM-1/VCAM-1 expression-associated cellular adhesion and migration activity of neutrophils.

ICAM-1 = test: as above; format: in vivo
Source text: as §1

MMP-9 [4] = test: Short-term nebulization without OVA sensitization, lung tissue; format: in vivo, mice; settings: 1.0~2.5 mM, 30 mins nebulization, no OVA
Experimental: Short-term KMUP-1 (5 mM, 30 min) nebulization and pretreatment with L-NAME (12 mM, […]) are accomplished using a previously described method. Aerosols were generated by ultrasonic nebulizer from day 21 to 27. Mice were sacrificed on day 28. Three different experiments were performed on cohorts of 7-14 mice per experimental condition.
Please refer to FIGS. 22(B) and 23(B), the changes of eNOS and MMP-9 expression by KMUP-1 (2.5 mM, 30 mins) are reversed by L-NAME-pretreatment (12 mM, 30 mins).

PKG = test: Western blotting of lung tissue, OVA-sensitized and -challenged mice; format: in vivo; settings: nebulization, 28-day experiment
TGF-β = TGF-β expression, bleomycin-induced lung fibrosis (EIA); format: in vivo, mice; settings: BM 60 mg/kg; drug 2.5 mg/kg oral
Experimental: The increased amount of the collagen synthesis and the macrophage generation in alveolus may facilitate the formulation of TGF-β, and the expression of TGF-β is deeming as a biomarker of the lung fibrosis. KMUP-1HCl salt (1, 2.5 and 5 mg/kg), the Simvastatin (5 mg/kg), the KMUP-1-nicotinic acid complex (2.5 mg/kg), the KMUP-1-Simvastatinic acid complex (2.5 mg/kg) and KMUP-1-γ-polyglutamic acid complex (2.5 mg/kg) are orally administered to the mice for inhibiting the lung fibrosis induced by TGF-β expression in tracheal lavage solution that resulted from 60 mg/kg BM inhalation (Table 6). The state of the TGF-β expression in the lavage is measured by the enzyme immunoassay (EIA).

[5] = Monocrotaline (MCT)-induced pulmonary arterial hypertension, PABP; format: in vivo, male Wistar rats; settings: MCT-treated rats
Experimental: The rats administered MCT (60 mg/kg) are caused pulmonary artery hypertension on day 21 after the intraperitoneal injection. The KMUP-1HCl salt (2.5 mg/kg), Simvastatin (2.5 mg/kg), KMUP-1-nicotinic acid complex (2.5 mg/kg), KMUP-1-citric acid complex (2.5 mg/kg), KMUP-1-Simvastatinic Acid complex (2.5 mg/kg) and KMUP-1-γ-polyglutamic acid complex (2.5 mg/kg) orally administered, or the KMUP-1-PGI2 complex (0.1 mM) inhaled every day may inhibit the pulmonary arterial blood pressure (PABP) in MCT-treated male Wistar rats.

SMILES | MMP-9 positive cells (MMP-9 [1]) | sGCα1 expression reduced by OVA sensitization (sGCα1) | MMP-9 expression increased by OVA sensitization (MMP-9 [2]) | Inflammatory cells in the peri-vascular and peri-bronchiolar regions ([3]; OVA-exposed mice) | Vascular and bronchial wall thickness increased by OVA-sensitization ([3]; long-term nebulization) | Levels of NOx (nitrate+nitrite) in BALF (NOx) [µM] | iNOS expression increased by OVA sensitization (iNOS) | Vascular eNOS-immunostaining decreased by OVA (eNOS) | VCAM-1 expression (VCAM-1) | ICAM-1 expression (ICAM-1) | MMP-9 expression in lung tissues (MMP-9 [4]) | PKG expression reduced by OVA sensitization (PKG) | The changing amount of TGF-β in the lung tissue (TGF-β) [%] | Pulmonary arterial blood pressure (PABP), in words ([5]; 2.5 mg/kg orally every day) | PABP ([5]; 2.5 mg/kg/day p.o.) [mmHg]
Cn1c(=O)c2c(ncn2CCN2CCN(c3ccccc3Cl)CC2)n(C)c1=O [KMUP-1, 7-[2-[4-(2-chlorobenzene)piperazinyl]ethyl]-1,3-dimethylxanthine] | hardly detected | prevented | significantly reduced | marked reductions | prevents | 86.3 ± 17.3 | significantly reduced | prevents | suppressing | suppressing | decreased | prevented |  |  | 
CCC(C)(C)C(=O)O[C@H]1C[C@@H](C)C=C2C=C[C@H](C)[C@H](CC[C@@H](O)C[C@@H](O)CC(=O)O)[C@H]21.Cn1c(=O)c2c(ncn2CCN2CCN(c3ccccc3Cl)CC2)n(C)c1=O [KMUP-5] |  |  |  |  |  |  |  |  |  |  |  |  | 45 ± 4.5 | inhibit | 12 ± 1.3

Reference: patent publication US20100317671A1, “XANTHINE-BASED CYCLIC GMP-ENHANCING RHO-KINASE INHIBITOR INHIBITS PHYSIOLOGICAL ACTIVITIES OF LUNG EPITHELIAL CELL LINE” (KAOHSIUNG MEDICAL UNIVERSITY, priority 2008, published 2010)
